Patent publication US20230190866A1, “PEPTIDE FOR THE TREATMENT OF CYTOKINE STORM SYNDROME” (priority 2020, published 2023)
Ends that are not written are not given here.

Legend:
[1] = patients, pharmaceutical composition
From the text: The peptide identified as SEQ ID NO: 1 is obtained by chemical synthesis. Through experiments such as those described in the present invention, those immunological mechanisms induced by the peptide that contribute in the control of hyperinflammation can be evaluated.

[2] = tested on: acute respiratory distress syndrome in patients with Covid-19; settings: ten treated Covid-19 patients

In the case of “SIDLKDKYKNIGAKLVQLVANNTNEEA [peptide identified as SEQ ID NO: 1]”, the serious adverse events [1] is reported as “No serious adverse events were identified”, the tolerability [1] is reported as “well tolerated” and the symptoms of immunosuppression [2] is reported as “did not present any symptoms of immunosuppression”.
